In patent US6479487B1, “6, 9-disubstituted 2-[trans-(4-aminocyclohexyl)amino] purines” (Aventis Pharmaceuticals Inc., priority 1998, dated 2002):
“And” between values parts separate entries of the source, which are not always exact repeats. Identical values can stand only once. Counter-ions that a name gives are not always drawn. Like-named read-outs stand apart in the source and are kept apart here.

What was measured:
MDA-MB-231 = test: In vitro tumor cell proliferation, MDA-MB-231; assay type: cell-based, human; conditions: sulforhodamine B or CyQUANT assay, many values given with an undefined *, read-out: In vitro Tumor Cell Proliferation (IC50, μM) Breast MDA-MB-231
Summary of the method: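 Proliferation quantified by SRB staining of TCA-fixed cells after 3 days of drug plus 4 days with replenished drug, following overnight attachment at 37 °C.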

Colo-205 = test: In vitro tumor cell proliferation, Colo-205; assay type: cell-based; conditions: values given with an undefined *, read-out: In vitro Tumor Cell Proliferation (IC50, μM) Colon Colo-205
Summary of the method: (§1)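 Growth was quantified by sulforhodamine B staining of TCA-fixed cells after 3 days of drug plus 4 more days with fresh drug, or by CyQUANT after 3 days of drug and freezing at −80° C. Counted viable cells were plated and incubated overnight at 37° C before drug.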

A549 = test: In vitro tumor cell proliferation, A549; assay type: cell-based, human; conditions: many values given with an undefined *, read-out: In vitro Tumor Cell Proliferation (IC50, μM) Lung A549
Summary of the method: as §1

cdk4/cyclin D1 = molecular target: T1, cdk4/cyclin D1 (Homo sapiens, UniProt P11802); test: Cyclin-dependent Kinase 4 Assay (cdk4/cyclin D1, GST-Rb substrate); assay type: biochemical; conditions: cdk4/cyclin D1 insect cell lysate, 10 μM ATP, 30 min at 37° C., several values = separate determinations, read-out: CDK4 Inhibition IC50
T1 construct: made in house; host or cells: Sf9 insect cells (Bac-to-Bac baculovirus, pFastBac)
Summary of the method: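 IC50 against cdk4 measured by scintillation counting of bead-bound GST-Rb (0.5 μg) after filtration and four TNEN washes. Reaction was 30 min at 37 °C in HEPES pH 7.5 buffer with 10 mM MgCl2 and 1 mM EGTA. Enzyme source was 0.1 μg Sf9 lysate coinfected with cdk4 and cyclin D1.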

PC-3 = test: In vitro tumor cell proliferation, PC-3; assay type: cell-based, human; conditions: many values given with an undefined *, read-out: In vitro Tumor Cell Proliferation (IC50, μM) Prostate PC-3
Summary of the method: as §1

MDA-MB-435 = test: In vitro tumor cell proliferation, MDA-MB-435; assay type: cell-based; conditions: values given with an undefined *, read-out: In vitro Tumor Cell Proliferation (IC50, μM) Breast MDA-MB-435
Summary of the method: as §1

cdk2/cyclin E = molecular target: T2, cdk2/cyclin E (Homo sapiens, UniProt P24941); test: Cyclin-Dependent Kinase 2 Assay (cdk2/cyclin E, GST-Rb substrate); assay type: biochemical; conditions: recombinant cdk2/cyclin E, 10 μM ATP, 30 min at 30° C., several values in a cell = separate determinations, read-out: CDK-2 Inhibition IC50
T2 construct: made in house; host or cells: insect cells (baculovirus co-infection)
Description: Substrate: GST-Rb as described above for cdk4/cyclin D1
Assay conditions for cdk2/cyclin E were identical to those for cdk4/cyclin D1 including the substrate. The concentration of recombinant cdk2/cyclin E in the assay was 0.1 μg per 100 μl assay. Incubation was for 30 min at 30° C.

DMS-114 = test: In vitro tumor cell proliferation, DMS-114; assay type: cell-based, human; conditions: many values given with an undefined *, read-out: In vitro Tumor Cell Proliferation (IC50, μM) Lung DMS-114
Summary of the method: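 Human small cell lung carcinoma DMS-114 cells plated overnight, then drug-treated for 3 days, medium and drug renewed, and incubated 4 more days. Growth read by sulforhodamine B staining after TCA fixation; alternatively by CyQUANT after 3 days' drug exposure and freezing at −80 °C.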

DU145 = test: In vitro tumor cell proliferation, DU145; assay type: cell-based, human; conditions: many values given with an undefined *, read-out: In vitro Tumor Cell Proliferation (IC50, μM) Prostate DU145
Summary of the method: as §1

HT-29 = test: In vitro tumor cell proliferation, HT-29; assay type: cell-based, human; conditions: many values given with an undefined *, read-out: In vitro Tumor Cell Proliferation (IC50, μM) Colon HT-29
Summary of the method: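 Growth was quantified either with CyQUANT, plates frozen at −80° C after 3 days of drug, or by sulforhodamine B staining of TCA-fixed cells after 3 days of drug plus 4 days with fresh drug. Trypan blue-excluding HT-29 cells were plated overnight at 37° C before dosing.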

[1] = Homo sapiens, MDA-MB-231, MDA-MB-231
[2] = Homo sapiens, COLO 205, Colo-205
[3] = Homo sapiens, MDA-MB-435, MDA-MB-435

T1 sequence (P11802 whole entry): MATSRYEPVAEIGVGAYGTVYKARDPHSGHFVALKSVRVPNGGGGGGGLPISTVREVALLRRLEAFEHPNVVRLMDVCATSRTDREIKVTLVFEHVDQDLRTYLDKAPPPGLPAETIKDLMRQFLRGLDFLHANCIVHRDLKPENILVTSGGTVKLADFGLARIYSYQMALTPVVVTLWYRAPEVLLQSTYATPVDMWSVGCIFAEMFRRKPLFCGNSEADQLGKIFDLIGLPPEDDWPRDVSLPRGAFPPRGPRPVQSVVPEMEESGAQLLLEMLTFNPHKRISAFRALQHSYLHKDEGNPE
T1 sequence (P24385 whole entry partner): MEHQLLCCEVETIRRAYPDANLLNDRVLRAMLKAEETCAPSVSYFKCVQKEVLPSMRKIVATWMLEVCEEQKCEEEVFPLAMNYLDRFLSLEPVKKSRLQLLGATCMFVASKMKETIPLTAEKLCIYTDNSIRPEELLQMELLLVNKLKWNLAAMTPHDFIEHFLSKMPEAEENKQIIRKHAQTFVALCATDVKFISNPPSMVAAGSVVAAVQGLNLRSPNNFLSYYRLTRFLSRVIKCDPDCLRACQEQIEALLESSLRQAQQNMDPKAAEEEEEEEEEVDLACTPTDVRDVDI

Row | SMILES | IC50 (MDA-MB-231; [1]) [µM] | IC50 (Colo-205; Colo-205, dihydrochloride) | IC50 (Colo-205; [2]) [µM] | IC50 (A549; Homo sapiens, A549, A549) [µM] | IC50 (cdk4/cyclin D1) | IC50 (PC-3; Homo sapiens, PC-3, PC-3) [µM] | IC50 (PC-3; PC-3, dihydrochloride) | IC50 (MDA-MB-435; [3]) [µM] | IC50 (MDA-MB-435; MDA-MB-435, dihydrochloride) | IC50 (cdk2/cyclin E) | IC50 (DMS-114; DMS-114, dihydrochloride) | IC50 (DMS-114; Homo sapiens, DMS-114, DMS-114) [µM] | IC50 (DU145; Homo sapiens, DU-145, DU145) [µM] | IC50 (HT-29; Homo sapiens, HT-29, HT-29) [µM] | IC50 (A549; A549, trihydrochloride) [µM] | IC50 (PC-3; PC-3, trihydrochloride) [µM] | IC50 (MDA-MB-435; MDA-MB-435, trihydrochloride) [µM] | IC50 (DMS-114; DMS-114, trihydrochloride) [µM] | IC50 (DU145; DU145, trihydrochloride) [µM] | IC50 (HT-29; HT-29, trihydrochloride) [µM] | also measured
1 | N[C@H]1CC[C@H](Nc2nc(NCc3cccc4ccccc34)c3ncn(C4CCCC4)c3n2)CC1 [Example 7, 2-[Trans-(4-aminocyclohexyl)amino]-6-[(1-napthyl)methylamino]-9-cyclopentylpurine dihydrochloride] | 4.4 | 3.5 µM | 3.4 | 3.4 | 1400 nM | 4.2 | 4.8 µM | 11 | 10 µM | 160 nM | 3.3 µM | 2.8 | 5.5 | 4.6 |  |  |  |  |  |  | IC50 (MDA-MB-231; MDA-MB-231, dihydrochloride): 4.9 µM; IC50 (DU145; DU145, dihydrochloride): 5.2 µM; IC50 (HT-29; HT-29, dihydrochloride): 4.8 µM
2 | COc1ccc(CNc2nc(N[C@H]3CC[C@H](N)CC3)nc3c2ncn3C(C)C)cc1 [Example 37, 2-[Trans-(4-aminocyclohexyl)amino]-6-[(4-methoxybenzyl)amino]-9-(2-propyl)purine dihydrochloride] | 3 | 1.6 µM and 1.3 µM | 1.7 | 1.3 | 5200 nM | 2.3 | 2.8 µM and 2.5 µM | 3.4 | 3.2 µM and 2.7 µM | 690 nM | 1.7 µM and 1.5 µM | 1.3 | 2.7 | 3.2 |  |  |  |  |  |  | IC50 (DU145; DU145, dihydrochloride): 2.6 µM and 3 µM; IC50 (HT-29; HT-29, dihydrochloride): 1.8 µM and 2.5 µM
3 | N[C@H]1CC[C@H](Nc2nc(NC3CCN(Cc4c(F)cccc4Cl)CC3)c3ncn(C4CCCC4)c3n2)CC1 [Example 147-n, 2-[Trans-(4-aminocyclohexyl)amino]-6-[4-[1-(2-chloro-6-fluorobenzyl)]piperidinylamino]-cyclopentylpurine trihydrochloride] | 0.81 |  | 0.44 | 0.39 | 1600 nM and 3100 nM | 0.73 |  | 0.89 |  | 160 nM and 340 nM and 440 nM |  | 1.1 | 0.6 | 0.71 | 0.33 | 0.93 | 1 | 0.8 | 0.59 | 0.64 | IC50 (MDA-MB-231; MDA-MB-231, trihydrochloride): 0.72 µM; IC50 (Colo-205; Colo-205, trihydrochloride): 0.32 µM

Compounds with a lower IC50 (MDA-MB-231; [1]), results first:

Row | IC50 (MDA-MB-231; [1]) [µM] | IC50 (Colo-205; Colo-205, dihydrochloride) | IC50 (Colo-205; [2]) [µM] | IC50 (A549; Homo sapiens, A549, A549) [µM] | IC50 (cdk4/cyclin D1) | IC50 (PC-3; Homo sapiens, PC-3, PC-3) [µM] | IC50 (PC-3; PC-3, dihydrochloride) | IC50 (MDA-MB-435; [3]) [µM] | IC50 (MDA-MB-435; MDA-MB-435, dihydrochloride) | IC50 (cdk2/cyclin E) | IC50 (DMS-114; DMS-114, dihydrochloride) | IC50 (DMS-114; Homo sapiens, DMS-114, DMS-114) [µM] | IC50 (DU145; Homo sapiens, DU-145, DU145) [µM] | IC50 (HT-29; Homo sapiens, HT-29, HT-29) [µM] | IC50 (A549; A549, trihydrochloride) [µM] | IC50 (PC-3; PC-3, trihydrochloride) [µM] | IC50 (MDA-MB-435; MDA-MB-435, trihydrochloride) [µM] | IC50 (DMS-114; DMS-114, trihydrochloride) [µM] | IC50 (DU145; DU145, trihydrochloride) [µM] | IC50 (HT-29; HT-29, trihydrochloride) [µM] | SMILES | also measured
4 | 0.47 |  | 0.34 | 0.22 | 2800 nM and 1800 nM | 0.33 |  | 0.48 |  | 100 nM and 240 nM |  | 0.94 | 0.34 | 0.42 | 0.16 | 0.58 | 0.78 | 0.47 | 0.36 | 0.47 | N[C@H]1CC[C@H](Nc2nc(NC3CCN(Cc4ccc(F)cc4F)CC3)c3ncn(C4CCCC4)c3n2)CC1 [Example 147-h, 2-[Trans-(4-aminocyclohexyl)amino]-6-[4-[1-(2,4-difluorobenzyl)piperidinylamino]-9-cyclopentylpurinetrihydrochloride] | IC50 (Colo-205; Colo-205, trihydrochloride): 0.21 µM
5 | 0.2 |  | 0.17 | 0.15 | 1300 nM and 720 nM | 0.17 |  | 0.27 |  | 200 nM and 210 nM |  | 0.37 | 0.21 | 0.3 | 0.14 | 0.26 | 0.3 | 0.25 | 0.2 | 0.22 | N[C@H]1CC[C@H](Nc2nc(NC3CCN(Cc4cccc(F)c4)CC3)c3ncn(C4CCCC4)c3n2)CC1 [Example 147-j, 2-[Trans-(4-aminocyclohexyl)amino]-6-[4-[1-(3-fluorobenzyl)]piperidinylamino]-9-cyclopentylpurine trihydrochloride] | IC50 (MDA-MB-231; MDA-MB-231, trihydrochloride): 0.21 µM
